Experimental data published in ChEMBL document CHEMBL1145423, “Synthesis and pharmacological evaluation of phenylethynyl[1,2,4]methyltriazines as analogues of 3-methyl-6-(phenylethynyl)pyridine” (J Med Chem, 2007).
Activity calls are given as the source filed them. The rule behind the calls is not given here.

Key:
[1] = target: Metabotropic glutamate receptor 5 (Homo sapiens, UniProt P41594); assay: Antagonist activity at human mGluR5 receptor expressed in CHOK1 cells assessed as inhibition of glutamate-mediated internal calcium mobilization; type: functional, cell-based, CHO-K1
Chain of Metabotropic glutamate receptor 5 (P41594 whole entry): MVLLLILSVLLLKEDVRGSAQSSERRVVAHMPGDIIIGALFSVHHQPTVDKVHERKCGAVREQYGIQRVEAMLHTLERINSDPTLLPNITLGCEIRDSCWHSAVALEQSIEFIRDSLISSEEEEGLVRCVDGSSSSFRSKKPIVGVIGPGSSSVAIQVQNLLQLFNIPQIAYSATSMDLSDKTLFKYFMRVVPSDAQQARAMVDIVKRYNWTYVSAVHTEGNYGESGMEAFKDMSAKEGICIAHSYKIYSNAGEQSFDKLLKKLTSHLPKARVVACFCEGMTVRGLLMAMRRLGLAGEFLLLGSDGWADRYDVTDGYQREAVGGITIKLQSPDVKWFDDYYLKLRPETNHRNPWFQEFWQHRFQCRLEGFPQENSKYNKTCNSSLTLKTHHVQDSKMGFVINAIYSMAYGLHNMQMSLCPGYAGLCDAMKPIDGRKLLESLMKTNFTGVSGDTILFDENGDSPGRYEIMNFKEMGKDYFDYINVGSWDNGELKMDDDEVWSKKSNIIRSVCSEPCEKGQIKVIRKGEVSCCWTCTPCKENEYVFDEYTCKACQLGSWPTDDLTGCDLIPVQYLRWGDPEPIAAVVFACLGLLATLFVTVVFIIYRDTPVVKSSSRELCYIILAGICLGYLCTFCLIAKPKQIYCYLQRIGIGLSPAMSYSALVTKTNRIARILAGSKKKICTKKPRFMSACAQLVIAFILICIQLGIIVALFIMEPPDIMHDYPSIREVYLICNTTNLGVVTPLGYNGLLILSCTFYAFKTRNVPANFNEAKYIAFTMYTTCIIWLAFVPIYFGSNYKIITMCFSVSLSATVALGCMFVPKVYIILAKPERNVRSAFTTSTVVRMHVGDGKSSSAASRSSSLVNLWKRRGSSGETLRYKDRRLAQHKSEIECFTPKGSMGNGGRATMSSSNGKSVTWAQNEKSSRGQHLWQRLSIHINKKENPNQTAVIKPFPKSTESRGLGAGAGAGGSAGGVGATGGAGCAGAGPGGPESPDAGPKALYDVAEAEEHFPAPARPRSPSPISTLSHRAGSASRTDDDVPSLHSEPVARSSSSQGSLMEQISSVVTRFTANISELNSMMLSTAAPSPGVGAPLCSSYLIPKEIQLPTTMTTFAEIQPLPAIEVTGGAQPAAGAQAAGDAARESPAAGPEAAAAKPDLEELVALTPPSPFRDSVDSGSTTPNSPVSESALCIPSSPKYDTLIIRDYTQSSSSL

[2] = target: Metabotropic glutamate receptor 1 (Homo sapiens) (UniProt Q13255); assay: Antagonist activity at human mGluR1 receptor expressed in CHOK1 cells assessed as inhibition of glutamate-mediated internal calcium mobilization; type: functional, cell-based; conditions: CHO-K1
Chain of Metabotropic glutamate receptor 1 (Homo sapiens) (Q13255 19-1194 limits assumed): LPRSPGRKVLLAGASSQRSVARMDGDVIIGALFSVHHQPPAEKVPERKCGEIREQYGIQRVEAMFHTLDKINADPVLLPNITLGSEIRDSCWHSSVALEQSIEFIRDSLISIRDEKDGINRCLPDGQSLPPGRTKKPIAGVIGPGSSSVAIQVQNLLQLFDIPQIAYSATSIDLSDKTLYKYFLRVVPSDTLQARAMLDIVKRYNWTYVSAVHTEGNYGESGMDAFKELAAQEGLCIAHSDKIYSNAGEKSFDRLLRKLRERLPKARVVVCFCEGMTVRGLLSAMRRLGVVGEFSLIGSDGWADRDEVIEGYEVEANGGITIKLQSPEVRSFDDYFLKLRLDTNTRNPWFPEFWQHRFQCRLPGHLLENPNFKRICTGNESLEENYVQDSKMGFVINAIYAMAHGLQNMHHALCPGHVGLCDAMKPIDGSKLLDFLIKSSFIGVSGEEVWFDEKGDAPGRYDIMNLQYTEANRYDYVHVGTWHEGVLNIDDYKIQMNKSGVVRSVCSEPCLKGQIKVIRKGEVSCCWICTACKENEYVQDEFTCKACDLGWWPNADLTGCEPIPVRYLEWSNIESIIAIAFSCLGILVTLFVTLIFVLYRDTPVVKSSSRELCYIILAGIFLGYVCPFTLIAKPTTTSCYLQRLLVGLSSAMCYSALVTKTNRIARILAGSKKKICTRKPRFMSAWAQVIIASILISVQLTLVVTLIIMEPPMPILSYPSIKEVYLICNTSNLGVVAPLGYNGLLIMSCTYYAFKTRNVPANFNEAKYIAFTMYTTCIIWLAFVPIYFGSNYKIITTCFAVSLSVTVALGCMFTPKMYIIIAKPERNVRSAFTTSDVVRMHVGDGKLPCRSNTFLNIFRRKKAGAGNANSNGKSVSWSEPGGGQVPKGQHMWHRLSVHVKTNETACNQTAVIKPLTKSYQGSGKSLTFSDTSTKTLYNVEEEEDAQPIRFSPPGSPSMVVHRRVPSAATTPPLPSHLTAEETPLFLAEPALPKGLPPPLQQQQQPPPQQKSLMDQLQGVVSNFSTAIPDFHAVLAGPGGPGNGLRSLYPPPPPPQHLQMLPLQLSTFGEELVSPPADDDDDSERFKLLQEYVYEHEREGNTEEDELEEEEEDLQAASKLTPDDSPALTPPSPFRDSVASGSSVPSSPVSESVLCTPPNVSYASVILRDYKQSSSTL

SMILES	IC50 ([1]; cho-k1)	IC50 ([1]; read-out: IC50) [nM]	Activity [2]
Cc1cnnc(C#Cc2ccccc2C)n1	Not Active	–	–
COc1ccc(C#Cc2nncc(C)n2)c(C)c1	Not Active	–	–
Cc1cnnc(C#Cc2ccc(-c3ccccc3)cc2)n1	–	510	inactive
Cc1cnnc(C#Cc2cccc(C#N)c2)n1	–	52	inactive
COc1ccccc1C#Cc1nncc(C)n1	Not Active	–	–
Cc1cnnc(C#Cc2ccc3ccccc3c2)n1	Not Active	–	–
Cc1cnnc(C#Cc2cc(C(F)(F)F)cc(C(F)(F)F)c2)n1	Not Active	–	–
Cc1cnnc(C#Cc2ccccc2)n1	–	140	inactive
Cc1cnnc(C#Cc2cccc(C(F)(F)F)c2)n1	–	85	inactive
Cc1cnnc(C#Cc2ccc(C(F)(F)F)cc2)n1	Not Active	–	–
Cc1nncc(C#Cc2ccccc2)n1	Not Active	–	–
Cc1cnnc(C#Cc2ccc(Oc3ccccc3)cc2)n1	–	80	inactive
Cc1cnc(C#Cc2ccccc2)nn1	Not Active	–	–
Cc1cnnc(C#Cc2cccc3ccccc23)n1	–	8900	inactive

Continued, values first:

IC50 ([1]; cho-k1)	IC50 ([1]; read-out: IC50) [nM]	Activity [2]	SMILES
Not Active	–	–	Cc1cnnc(C#Cc2ccc3c(c2)OCO3)n1
–	4.2	inactive	Cc1cnnc(C#Cc2cccc(Cl)c2)n1
–	6	inactive	Cc1cnnc(C#Cc2cccc(Br)c2)n1
–	312	inactive	COc1cccc(C#Cc2nncc(C)n2)c1
–	2.3	inactive	Cc1cccc(C#Cc2nncc(C)n2)c1
–	96	inactive	Cc1cnnc(C#Cc2cccc(F)c2)n1
Not Active	–	–	Cc1cnnc(C#Cc2ccc(F)cc2F)n1
–	1890	inactive	Cc1ccc(C)c(C#Cc2nncc(C)n2)c1
–	132	inactive	Cc1cnnc(C#Cc2ccc(F)c(C)c2)n1
